Experimental data as given in US12371675B2, “Process and microorganism for synthesis of adipic acid from carboxylic acids” (THE GOVERNING COUNCIL OF THE UNIVERSITY OF TORONTO, priority 2015, dated 2025).

Legend:
[1] = molecular target: Mycobacterium paratuberculosis carboxylate reductase MAP_1040c, SEQ ID NO: 38 (Mycobacterium avium, UniProt A0ACD7BNV2); assay: CAR kinetics, ATP/NADPH dependent carboxylic acid reduction
[2] = molecular target: T1, Mycobacterium smegmatis carboxylate reductase MSMEG_2956, SEQ ID NO: 70 (Mycolicibacterium smegmatis, UniProt A0QWI7); assay: as above
T1 sequence (A0QWI7 1-1168): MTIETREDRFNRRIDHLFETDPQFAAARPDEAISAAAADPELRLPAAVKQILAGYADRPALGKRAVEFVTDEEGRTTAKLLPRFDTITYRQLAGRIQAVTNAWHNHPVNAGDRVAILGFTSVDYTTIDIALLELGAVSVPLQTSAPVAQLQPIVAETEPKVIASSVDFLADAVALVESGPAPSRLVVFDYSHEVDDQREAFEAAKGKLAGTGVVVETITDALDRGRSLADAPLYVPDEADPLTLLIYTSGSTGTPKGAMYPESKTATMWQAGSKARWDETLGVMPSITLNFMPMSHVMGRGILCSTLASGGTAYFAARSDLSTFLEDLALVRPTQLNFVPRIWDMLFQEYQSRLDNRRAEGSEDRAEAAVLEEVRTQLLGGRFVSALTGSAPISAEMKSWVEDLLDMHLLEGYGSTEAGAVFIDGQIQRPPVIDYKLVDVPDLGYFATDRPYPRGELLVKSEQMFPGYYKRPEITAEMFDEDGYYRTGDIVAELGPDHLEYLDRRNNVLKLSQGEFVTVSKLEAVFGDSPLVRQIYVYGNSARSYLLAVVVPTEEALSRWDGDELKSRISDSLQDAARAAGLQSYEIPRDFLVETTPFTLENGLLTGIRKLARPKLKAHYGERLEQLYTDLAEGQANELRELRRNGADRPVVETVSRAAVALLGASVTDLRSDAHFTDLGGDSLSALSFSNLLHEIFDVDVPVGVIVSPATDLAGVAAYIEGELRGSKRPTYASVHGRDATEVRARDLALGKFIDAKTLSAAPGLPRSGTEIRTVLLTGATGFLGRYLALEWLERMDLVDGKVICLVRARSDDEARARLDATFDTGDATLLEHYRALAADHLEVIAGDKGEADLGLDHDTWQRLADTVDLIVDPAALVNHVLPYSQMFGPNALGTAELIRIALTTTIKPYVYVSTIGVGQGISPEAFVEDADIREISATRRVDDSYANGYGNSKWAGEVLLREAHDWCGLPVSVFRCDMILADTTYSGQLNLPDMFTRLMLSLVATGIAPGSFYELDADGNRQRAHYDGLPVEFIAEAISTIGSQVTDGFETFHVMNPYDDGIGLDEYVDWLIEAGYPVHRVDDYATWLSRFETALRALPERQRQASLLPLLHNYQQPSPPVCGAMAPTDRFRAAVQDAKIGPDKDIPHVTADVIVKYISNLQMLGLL

[3] = molecular target: T2, Mycobacterium smegmatis carboxylate reductase MSMEG_5739, SEQ ID NO: 37 (Mycolicibacterium smegmatis, UniProt A0R484); assay: as above
T2 sequence (A0R484 1-1173): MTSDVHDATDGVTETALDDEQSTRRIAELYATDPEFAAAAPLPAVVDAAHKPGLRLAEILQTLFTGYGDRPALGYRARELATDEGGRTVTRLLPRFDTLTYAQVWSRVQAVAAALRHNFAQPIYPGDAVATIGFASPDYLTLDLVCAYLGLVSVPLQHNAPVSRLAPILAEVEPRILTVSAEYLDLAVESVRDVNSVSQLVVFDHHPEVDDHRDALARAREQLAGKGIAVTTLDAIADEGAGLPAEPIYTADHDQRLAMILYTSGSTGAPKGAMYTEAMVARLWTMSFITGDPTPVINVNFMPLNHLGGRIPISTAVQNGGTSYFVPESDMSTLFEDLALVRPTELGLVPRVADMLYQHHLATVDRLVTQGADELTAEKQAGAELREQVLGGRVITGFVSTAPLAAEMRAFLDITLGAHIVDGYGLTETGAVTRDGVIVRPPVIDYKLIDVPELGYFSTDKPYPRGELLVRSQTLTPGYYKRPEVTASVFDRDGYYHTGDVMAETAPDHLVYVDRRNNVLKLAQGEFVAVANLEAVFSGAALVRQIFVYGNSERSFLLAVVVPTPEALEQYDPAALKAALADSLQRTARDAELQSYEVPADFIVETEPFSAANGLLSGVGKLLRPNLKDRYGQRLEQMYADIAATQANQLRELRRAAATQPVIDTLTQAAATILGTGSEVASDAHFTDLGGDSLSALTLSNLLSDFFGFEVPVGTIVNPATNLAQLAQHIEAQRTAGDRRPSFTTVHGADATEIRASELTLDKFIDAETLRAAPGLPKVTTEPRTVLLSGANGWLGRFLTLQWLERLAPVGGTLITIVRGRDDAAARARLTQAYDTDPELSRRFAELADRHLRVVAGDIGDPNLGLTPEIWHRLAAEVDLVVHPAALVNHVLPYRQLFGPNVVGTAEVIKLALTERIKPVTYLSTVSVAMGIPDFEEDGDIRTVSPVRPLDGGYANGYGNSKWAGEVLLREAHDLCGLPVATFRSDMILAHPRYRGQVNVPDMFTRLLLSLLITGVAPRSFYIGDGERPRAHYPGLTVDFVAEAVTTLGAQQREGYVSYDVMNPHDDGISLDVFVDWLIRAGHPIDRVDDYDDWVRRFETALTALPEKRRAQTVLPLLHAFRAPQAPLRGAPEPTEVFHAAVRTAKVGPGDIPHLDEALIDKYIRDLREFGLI

[4] = system: Rhodococcus jostii aldehyde reductase RHA1_ro05279, SEQ ID NO: 47; assay: AR kinetics, aldehyde reduction followed by NAD(P)H oxidation; format: biochemical
Description: 28 aldehyde reductases from different bacteria were cloned and overexpressed in E. coli. Enzymes purified using affinity chromatography on Ni-NTA resin were screened for reductase activity with adipaldehyde and butyraldehyde in presence of both NADPH and NADH (Table 5). Butyraldehyde was used as a substrate substitute for 4-oxo-butanal, which is not commercially available. Reactions were followed spectrophotometrically, by cofactor oxidation at 340 nm.
(§1) Enzyme activity of purified ARs was measured spectrophotometrically in 96-well plates Reaction mixtures contained 100 mM HEPES buffer (pH 7.5), 0.4 mM NADH/NADPH, 10 mM adipaldehyde or butylaldehyde, and proteins (10 μg for adipaldehyde screen, 2 μg for butyraldehyde screen) in a final volume of 200 μL Reaction mixture for adipaldehyde screening contained 1.8% DMSO. Enzyme reactions were monitored by following the decrease in absorbance at 340 nm (ε340 nm=6,220/M·cm) due to oxidation of NAD(P)H to NAD(P)+.
ARs RHA1_ro05279, PA1146, SC00229, PP_3370 were characterised for saturation with adipaldehyde, PP_3370, PSPTO_2097, RHA1_ro05279, SC00229, TM_0111, PA1146 were characterised for butyraldehyde saturation (Table 10). […] For both substrates maximal kcat/Km with minimal Km values was shown by AR PP 3370 from Pseudomonas putida.

[5] = molecular target: Bacillus coagulans 36D1 2-enoate reductase EREDBC, SEQ ID NO: 1 (Heyndrickxia coagulans, UniProt A0AAN0T7I1); assay: Kinetics of purified EREDBC, NADH oxidation at 340 nm, anaerobic; format: biochemical; details: for saturation by substrate: anaerobic, aqueous buffer
Bacillus coagulans 36D1 2-enoate reductase EREDBC, SEQ ID NO: 1, sequence (A0AAN0T7I1 entry or part of it): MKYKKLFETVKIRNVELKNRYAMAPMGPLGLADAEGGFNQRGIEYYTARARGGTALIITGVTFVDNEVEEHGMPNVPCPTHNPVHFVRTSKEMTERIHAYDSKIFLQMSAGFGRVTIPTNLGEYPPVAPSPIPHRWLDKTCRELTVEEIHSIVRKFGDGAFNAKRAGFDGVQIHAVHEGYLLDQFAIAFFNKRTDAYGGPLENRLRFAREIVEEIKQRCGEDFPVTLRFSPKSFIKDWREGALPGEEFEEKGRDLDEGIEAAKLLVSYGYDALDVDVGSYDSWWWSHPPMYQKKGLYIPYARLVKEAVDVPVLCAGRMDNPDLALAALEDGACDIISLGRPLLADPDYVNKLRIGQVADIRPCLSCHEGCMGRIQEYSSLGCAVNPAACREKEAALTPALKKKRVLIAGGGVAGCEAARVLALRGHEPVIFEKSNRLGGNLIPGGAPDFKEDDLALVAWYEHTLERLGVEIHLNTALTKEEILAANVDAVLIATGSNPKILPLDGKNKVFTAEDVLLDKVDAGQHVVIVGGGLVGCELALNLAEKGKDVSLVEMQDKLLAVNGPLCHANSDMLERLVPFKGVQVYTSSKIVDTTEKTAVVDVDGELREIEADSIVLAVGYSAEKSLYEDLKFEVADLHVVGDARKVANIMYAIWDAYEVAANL
Procedure: (§2) The C═C reducing activity of EREDs was examined. Enzyme activity of purified EREDs was measured spectrophotometrically in 96-well plates by following incubation for 3-5 min at 30° C. in the anaerobic chamber as described in M. Buhler, H. Simon, Hoppe-Seyler's Zeitschrift fur Physiologische Chemie 1982, 363, 609-625. Buffers and reagents were degassed and sparged with Ar. Reaction mixture contained potassium phosphate (100 mM and pH 7.0), NADH (0.5 mM), indicated substrates, and proteins (0.1-50 μg) in a final volume of 200 μL. Enzyme reactions were monitored by following the decrease in absorbance at 340 nm (ε340 nm=6,220/M·cm) due to oxidation of NADH to NAD+.
(§3) For in vitro biochemical characterization, enzyme activities of purified EREDs were measured with 2-hexenedioic acid, cis-cis-muconic acid, trans-trans muconic acid, trans-cinnamic acid, trans-2-methyl-2-butenoic acid, trans-2-butenoic acid, acrolein, 2-cyclohexen-1-one, and 3-methyl-2-cyclohexenone. […] [Feng, J. et al. Discovery and Characterization of BlsE, a Radical S-Adenosyl-L-methionine Decarboxylase Involved in the Blasticidin S Biosynthetic Pathway. PLoS ONE 8 (2013)].
Kinetic studies of purified EREDBC were performed using 2-hexenedioic acid, 2-cyclohexen-1-one, 3-methyl-2-cyclohexenone, and trans-cinnamic acid as substrates (FIG. 10).
(§4) To increase the dissolved substrate concentration, 2-hexenedioic acid was dissolved in a reaction mixture containing […] (final concentration) isopropanol, and kinetic constants of EREDBC and EREDCA were determined.

[6] = molecular target: T3, Clostridium acetobutylicum DSM 1731 2-enoate reductase EREDCA, SEQ ID NO: 2 (Clostridium acetobutylicum, UniProt Q97DV0); assay: Kinetics of purified EREDCA, NADH oxidation at 340 nm, anaerobic; format: biochemical; details: 4 to 28 mM
T3 sequence (Q97DV0 1-664): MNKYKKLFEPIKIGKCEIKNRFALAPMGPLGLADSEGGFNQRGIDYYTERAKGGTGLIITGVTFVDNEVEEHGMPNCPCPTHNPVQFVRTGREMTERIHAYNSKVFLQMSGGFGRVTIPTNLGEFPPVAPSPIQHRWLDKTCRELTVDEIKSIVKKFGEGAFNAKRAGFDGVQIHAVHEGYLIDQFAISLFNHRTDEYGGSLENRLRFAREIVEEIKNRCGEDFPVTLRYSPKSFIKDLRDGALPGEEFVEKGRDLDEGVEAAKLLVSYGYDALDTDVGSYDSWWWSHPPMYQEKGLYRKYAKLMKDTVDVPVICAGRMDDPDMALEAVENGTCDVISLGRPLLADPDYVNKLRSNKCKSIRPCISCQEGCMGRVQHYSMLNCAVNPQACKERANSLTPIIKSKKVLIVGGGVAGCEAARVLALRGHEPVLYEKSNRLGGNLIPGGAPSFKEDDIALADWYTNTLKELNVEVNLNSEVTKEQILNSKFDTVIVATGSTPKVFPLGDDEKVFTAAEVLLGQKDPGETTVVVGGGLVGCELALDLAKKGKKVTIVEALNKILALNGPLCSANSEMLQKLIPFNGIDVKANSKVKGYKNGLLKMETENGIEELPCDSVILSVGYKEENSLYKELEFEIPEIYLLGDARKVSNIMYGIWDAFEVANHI
Procedure: as §2, §3, §4

[7] = AR reductase activity, NAD(P)H oxidation at 340 nm; format: biochemical; details: 10 mM, ND = no activity was detected
Procedure: as §1

[8] = AT activity coupled with alanine and glutamate dehydrogenases; format: biochemical; details: 10 mM adipaldehyde, alanine and glutamate amino-donors; ND = no activity was detected
[9] = adipaldehyde, cofactor NADH, 1,8% DMSO

Mycobacterium paratuberculosis carboxylate reductase MAP_1040c, SEQ ID NO: 38, sequence (A0ACD7BNV2 entry or part of it): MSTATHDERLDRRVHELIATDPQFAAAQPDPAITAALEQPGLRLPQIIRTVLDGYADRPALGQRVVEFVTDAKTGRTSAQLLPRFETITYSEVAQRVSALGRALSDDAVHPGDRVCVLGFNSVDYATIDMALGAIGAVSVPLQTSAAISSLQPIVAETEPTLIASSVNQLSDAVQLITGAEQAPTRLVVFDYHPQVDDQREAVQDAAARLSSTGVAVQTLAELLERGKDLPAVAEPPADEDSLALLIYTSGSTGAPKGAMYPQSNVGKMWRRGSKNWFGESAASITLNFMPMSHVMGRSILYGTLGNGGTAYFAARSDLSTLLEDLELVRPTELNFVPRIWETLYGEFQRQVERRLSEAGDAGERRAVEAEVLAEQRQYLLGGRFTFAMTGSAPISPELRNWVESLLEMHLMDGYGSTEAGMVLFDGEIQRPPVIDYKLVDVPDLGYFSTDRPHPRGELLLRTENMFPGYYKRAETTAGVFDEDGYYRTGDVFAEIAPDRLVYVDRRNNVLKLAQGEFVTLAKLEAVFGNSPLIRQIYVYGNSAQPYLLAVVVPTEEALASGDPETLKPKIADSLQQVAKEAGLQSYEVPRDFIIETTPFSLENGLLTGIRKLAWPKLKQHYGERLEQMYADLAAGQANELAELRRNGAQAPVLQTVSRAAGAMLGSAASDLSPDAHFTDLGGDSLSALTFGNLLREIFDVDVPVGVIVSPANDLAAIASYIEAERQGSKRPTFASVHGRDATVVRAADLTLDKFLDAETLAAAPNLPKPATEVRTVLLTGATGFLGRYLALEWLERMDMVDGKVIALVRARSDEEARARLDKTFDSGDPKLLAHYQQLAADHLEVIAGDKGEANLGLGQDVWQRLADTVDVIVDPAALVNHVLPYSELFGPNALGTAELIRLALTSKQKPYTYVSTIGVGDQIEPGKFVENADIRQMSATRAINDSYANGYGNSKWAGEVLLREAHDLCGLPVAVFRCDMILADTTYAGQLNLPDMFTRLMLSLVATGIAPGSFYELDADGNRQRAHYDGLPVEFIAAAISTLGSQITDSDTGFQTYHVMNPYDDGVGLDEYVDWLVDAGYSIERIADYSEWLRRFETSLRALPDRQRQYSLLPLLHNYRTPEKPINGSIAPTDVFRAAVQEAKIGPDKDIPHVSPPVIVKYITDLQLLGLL

O=C(O)CCCCCO [6-hydroxyhexanoic acid]
kcat [1]: 2.91 ± 0.19 s⁻¹
kcat/Km [1]: 41.58 ± 2.77 M⁻¹ s⁻¹

O=C(O)CCCCC(=O)O [adipic acid]
kcat [2]: 2.73 ± 0.20 s⁻¹
kcat/Km [2]: 25.2 ± 1.83 M⁻¹ s⁻¹
Km [3]: 87.5 ± 16.2 mM
kcat [3]: 2.40 ± 0.26 s⁻¹

CCCC=O [butyraldehyde]
Km ([4]; butyraldehyde, cofactor NADH): 14.3 ± 0.88 mM
kcat ([4]; butyraldehyde, cofactor NADH): 25.77 ± 0.88 s⁻¹
kcat/Km ([4]; butyraldehyde, cofactor NADH): (1.80 ± 0.06) × ×10^3 M^−1 · s^−1
Km ([4]; butyraldehyde, cofactor NADPH): 1.53 ± 0.39 mM
kcat ([4]; butyraldehyde, cofactor NADPH): 1.28 ± 0.09 s⁻¹
kcat/Km ([4]; butyraldehyde, cofactor NADPH): (8.37 ± 0.59) × ×10^2 M^−1 · s^−1

O=C(O)C=CCCC(=O)O (racemic) [2-hexenedioic acid, 2-Hexenedioic acid]
fold higher catalytic efficiency (kcat/Km) of EREDBC compared to EREDCA ([5]; 2-hexenedioic acid in 0.25 mM isopropanol, 2.5 to 35 mM): 14.6 fold
saturation by substrate [5]: no saturation
saturation by substrate [6]: no saturation

O=CCCCCC=O [adipaldehyde]
Km [4, 9]: 6.89 ± 1.38 mM
kcat [4, 9]: 3.67 ± 0.31 s⁻¹
kcat/Km [4, 9]: (5.33 ± 0.45) × ×10^2 M^−1 · s^−1

CC1=CC(=O)CCC1 [3-methyl-2-cyclohexenone, 3-Methyl-2-cyclohexenone]
saturation by substrate [5]: no saturation

RHA1_ro05279: aldehyde reductase (AR) from Rhodococcus jostii
Activity [U/mg protein] Adipaldehyde ([7]; 1.8% DMSO): 0.721 ± 0.026 U/mg protein
Activity [U/mg protein] Butyraldehyde [7]: 0.905 ± 0.834 U/mg protein

O=C1C=CCCC1 [2-cyclohexen-1-one, 2-Cyclohexen-1-one]
saturation by substrate [5]: no saturation

Rsp3534: aminotransferase (AT) from Rhodobacter sphaeroides
Adipaldehyde 10 mM U/mg [8]: 0.034 ± 0.005 U/mg
